Consider 31 compounds from patent US20150011508A1, “COMPOUNDS AND COMPOSITIONS AS C-KIT KINASE INHIBITORS” (priority 2011, published 2015).

pIC50: −log10 of the molar value.

T1 sequence (P10721 26-976): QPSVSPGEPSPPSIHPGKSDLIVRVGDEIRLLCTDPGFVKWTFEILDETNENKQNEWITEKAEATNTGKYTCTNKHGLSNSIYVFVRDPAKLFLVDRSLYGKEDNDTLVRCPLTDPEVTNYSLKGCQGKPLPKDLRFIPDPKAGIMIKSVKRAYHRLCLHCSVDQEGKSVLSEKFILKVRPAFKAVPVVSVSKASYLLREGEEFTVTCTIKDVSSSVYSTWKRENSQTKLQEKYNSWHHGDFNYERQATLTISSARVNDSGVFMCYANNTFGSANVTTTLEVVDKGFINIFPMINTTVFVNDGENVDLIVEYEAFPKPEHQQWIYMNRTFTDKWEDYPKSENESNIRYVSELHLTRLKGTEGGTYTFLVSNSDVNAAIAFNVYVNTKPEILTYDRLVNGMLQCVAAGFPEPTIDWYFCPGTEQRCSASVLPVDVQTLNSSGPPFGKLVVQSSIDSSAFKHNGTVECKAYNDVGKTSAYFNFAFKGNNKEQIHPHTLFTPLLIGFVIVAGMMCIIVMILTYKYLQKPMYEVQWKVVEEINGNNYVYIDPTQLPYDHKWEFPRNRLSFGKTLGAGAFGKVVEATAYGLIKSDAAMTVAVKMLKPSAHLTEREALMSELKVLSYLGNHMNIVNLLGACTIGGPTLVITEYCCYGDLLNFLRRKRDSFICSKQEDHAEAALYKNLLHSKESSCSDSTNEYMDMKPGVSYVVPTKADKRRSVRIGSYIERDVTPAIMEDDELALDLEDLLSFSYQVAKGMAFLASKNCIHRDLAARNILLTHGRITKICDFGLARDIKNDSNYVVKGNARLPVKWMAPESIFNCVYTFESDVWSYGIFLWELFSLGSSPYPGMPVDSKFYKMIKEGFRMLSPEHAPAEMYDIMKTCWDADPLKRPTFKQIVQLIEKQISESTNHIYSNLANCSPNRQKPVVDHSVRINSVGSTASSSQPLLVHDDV

One assay has as its target T1, c-kit (Homo sapiens, UniProt P10721).
T1 construct: human Mo7e cells which endogenously express c-kit; endogenous in cells; host or cells: human Mo7e cells (SCF-dependent promegakaryocytic leukemia line)
In words: Mo7e cell proliferation assay (SCF dependent proliferation). It counts as cell-based. The settings on record: Table 1; human Mo7e cells stimulated with human recombinant SCF, 48 h, CellTiter Glo; 1% FBS (footnote). In short, it runs like this:
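SCF-dependent proliferation of human Mo7e cells, which express c-kit endogenously, was measured after 48 h at 37° C by CellTiter Glo luminescence. IC50 was taken as the concentration giving a response halfway between the baseline and maximum responses.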
Consider `Cc1ccn2c(C(=O)Nc3cc(-c4noc(CCC(O)C(F)(F)F)n4)ccc3C)cnc2c1` (stereo not shown) [F253], for which the negative-log IC50 (pIC50) was 7.89.

On to `Cc1ccn2c(C(=O)Nc3cc(-c4noc(CC(O)(C(F)(F)F)C(F)(F)F)n4)ccc3C)cnc2c1` [F254], for which the negative logarithm of the IC50 (pIC50) was 7.29.

`Cc1nc(-c2ccc(C)c(NC(=O)c3cnc4ccc(-c5c(C)nn(CCO)c5C)cn34)c2)no1` [F255, 6-(1-(2-hydroxyethyl)-3,5-dimethyl-1H-pyrazol-4-yl)-N-(2-methyl-5-(5-methyl-1,2,4-oxadiazol-3-yl)phenyl)imidazo[1,2-a]pyridine-3-carboxamide]: the pIC50 was 7.80.

As for `CC(=O)c1sc(-c2ccc3ncc(C(=O)Nc4cc(-c5noc(C)n5)ccc4C)n3c2)nc1C` [F256, 6-(5-acetyl-4-methylthiazol-2-yl)-N-(2-methyl-5-(5-methyl-1,2,4-oxadiazol-3-yl)phenyl)imidazo[1,2-a]pyridine-3-carboxamide], the pIC50 was 7.27.

Consider `Cc1nc(-c2ccc(C)c(NC(=O)c3cnc4ccc(-c5c[nH]nc5C)cn34)c2)no1` [F257, 6-(3-methyl-1H-pyrazol-4-yl)-N-(2-methyl-5-(5-methyl-1,2,4-oxadiazol-3-yl)phenyl)imidazo[1,2-a]pyridine-3-carboxamide], for which the pIC50 is 7.72.

Take `CNC(=O)c1sc(-c2ccc3ncc(C(=O)Nc4cc(-c5noc(C)n5)ccc4C)n3c2)nc1C` [F258, N,4-dimethyl-2-(3-((2-methyl-5-(5-methyl-1,2,4-oxadiazol-3-yl)phenyl)carbamoyl)imidazo[1,2-a]pyridin-6-yl)thiazole-5-carboxamide]: the negative logarithm of the IC50 (pIC50) was 7.19.

Regarding `Cc1nc(-c2ccc(C)c(NC(=O)c3cnc4ccc(-c5nc(C)c(C(N)=O)s5)cn34)c2)no1` [F259, 4-methyl-2-(3-((2-methyl-5-(5-methyl-1,2,4-oxadiazol-3-yl)phenyl)carbamoyl)imidazo[1,2-a]pyridin-6-yl)thiazole-5-carboxamide], the pIC50 was 7.05.

In the case of `CNC(=O)Cn1nc(C)c(-c2ccc3ncc(C(=O)Nc4cc(-c5noc(C)n5)ccc4C)n3c2)c1C` [F260, 6-(3,5-dimethyl-1-(2-(methylamino)-2-oxoethyl)-1H-pyrazol-4-yl)-N-(2-methyl-5-(5-methyl-1,2,4-oxadiazol-3-yl)phenyl)imidazo[1,2-a]pyridine-3-carboxamide], the pIC50 was 7.49.

As for `CCOC(=O)c1nc(C)c(-c2ccc3ncc(C(=O)Nc4cc(-c5noc(C)n5)ccc4C)n3c2)s1` [F261, ethyl 4-methyl-5-(3-((2-methyl-5-(5-methyl-1,2,4-oxadiazol-3-yl)phenyl)carbamoyl)imidazo[1,2-a]pyridin-6-yl)thiazole-2-carboxylate], the pIC50 was 7.08.

As to `Cc1nc(-c2ccc(C)c(NC(=O)c3cnc4ccc(-c5sc(C(=O)NCCN6CCOCC6)nc5C)cn34)c2)no1` [F262, 4-methyl-5-(3-((2-methyl-5-(5-methyl-1,2,4-oxadiazol-3-yl)phenyl)carbamoyl)imidazo[1,2-a]pyridin-6-yl)-N-(2-morpholinoethyl)thiazole-2-carboxamide], the pIC50 was 7.12.

Regarding `Cc1nc(-c2ccc(C)c(NC(=O)c3cnc4ccc(-c5sc(C(=O)NCCO)nc5C)cn34)c2)no1` [F263, N-(2-hydroxyethyl)-4-methyl-5-(3-((2-methyl-5-(5-methyl-1,2,4-oxadiazol-3-yl)phenyl)carbamoyl)imidazo[1,2-a]pyridin-6-yl)thiazole-2-carboxamide], the pIC50 is 7.24.

Consider `Cc1nc(-c2ccc(C)c(NC(=O)c3cnc4ccc(-c5sc(C(N)=O)nc5C)cn34)c2)no1` [F264, 4-methyl-5-(3-((2-methyl-5-(5-methyl-1,2,4-oxadiazol-3-yl)phenyl)carbamoyl)imidazo[1,2-a]pyridin-6-yl)thiazole-2-carboxamide], for which the pIC50 is 7.42.

As for `Cc1nc(-c2ccc(C)c(NC(=O)c3cnc4ccc(-c5sc(CO)nc5C)cn34)c2)no1` [F265, 6-(2-(hydroxymethyl)-4-methylthiazol-5-yl)-N-(2-methyl-5-(5-methyl-1,2,4-oxadiazol-3-yl)phenyl)imidazo[1,2-a]pyridine-3-carboxamide], the pIC50 was 8.10.

`Cc1ccc(-c2noc(C(C)OCC(F)(F)F)n2)cc1NC(=O)c1cnc2ccccn12` (stereo not shown) [F266]: the negative-log IC50 (pIC50) was 7.96.

Regarding `Cc1ccn2c(C(=O)Nc3cc(-c4noc(CCC(C)(OC(=O)[C@H](C)N)C(F)(F)F)n4)ccc3C)cnc2c1` (stereo partly drawn) [F271, (2S)-1,1,1-trifluoro-2-methyl-4-(3-(4-methyl-3-(7-methylimidazo[1,2-a]pyridine-3-carboxamido)phenyl)-1,2,4-oxadiazol-5-yl)butan-2-yl 2-aminopropanoate], the negative logarithm of the IC50 (pIC50) was 8.10.

“(S)-1,1,1-trifluoro-2-methyl-4-(3-(4-methyl-3-(7-methylimidazo[1,2-a]pyridine-3-carboxamido)phenyl)-1,2,4-oxadiazol-5-yl)butan-2-yl dihydrouen phosphate [F268]”: the pIC50 is 7.59.

The assay is the same for the next values; noted with them: Table 2; human Mo7e cells stimulated with human recombinant SCF, 48 h, CellTiter Glo; 1% FBS (footnote).
Consider `Cc1nc(-c2ccc(C)c(NC(=O)c3cnc4ccc(-c5c(C)nn(CC(=O)O)c5C)cn34)c2)no1` [F235], for which the pIC50 is 5.61.

On to `Cc1nc(-c2ccc(C)c(NC(=O)c3cnc4ccc(-c5nc(C)c(C(C)O)s5)cn34)c2)no1` (stereo not shown) [F236], for which the pIC50 was 6.78.

Regarding `Cc1nc(-c2ccc(C)c(NC(=O)c3cnc4ccc(-c5nc(C)c(C)s5)cn34)c2)no1` [F237], the pIC50 is 6.74.

Regarding `Cc1nc(-c2ccc(C)c(NC(=O)c3cnc4ccc(-c5c(C)nn(CC(=O)NCCN6CCOCC6)c5C)cn34)c2)no1` [F239], the pIC50 was 6.71.

For `Cc1nc(-c2ccc(C)c(NC(=O)c3cnc4ccc(C(N)=O)cn34)c2)no1` [F240], the pIC50 is 5.83.

Turning to `Cc1nc(-c2ccc(C)c(NC(=O)c3cnc4ccc(C(N)=S)cn34)c2)no1` [F241], the pIC50 was 6.90.

Turning to `Cc1nc(-c2ccc(C)c(NC(=O)c3cnc4ccc(-c5nc(C)c(C(=O)NCCO)s5)cn34)c2)no1` [F242], the pIC50 was 6.81.

For `Cc1nc(-c2ccc(C)c(NC(=O)c3cnc4ccc(-c5nc(C)c(C(=O)NCCN6CCN(C)CC6)s5)cn34)c2)no1` [F243], the pIC50 is 6.71.

`Cc1nc(-c2ccc(C)c(NC(=O)c3cnc4ccc(-c5nc(C)c(C(=O)NCCN6CCOCC6)s5)cn34)c2)no1` [F245]: the negative-log IC50 (pIC50) is 6.92.

With `Cc1ccc(-c2noc(CCC(C)(C)O)n2)cc1NC(=O)c1cnc2c(N)cccn12` [F246], the pIC50 was 5.74.

Take `Cc1nc(-c2ccc(C)c(NC(=O)c3cnc4ccc(-c5sc(C(=O)O)nc5C)cn34)c2)no1` [F247]: the negative-log IC50 (pIC50) was 6.47.

Consider `Cc1nc(-c2ccc(C)c(NC(=O)c3cnc4ccc(-c5sc(C(=O)NCCN6CCN(C)CC6)nc5C)cn34)c2)no1` [F248], for which the negative-log IC50 (pIC50) was 6.85.

Take `Cc1ccn2c(C(=O)Nc3cc(-c4noc(CCC(C)(C)OC(=O)CN)n4)ccc3C)cnc2c1` [F249]: the pIC50 is 6.97.

`Cc1ccn2c(C(=O)Nc3cc(-c4noc(CC[C@@](C)(OC(=O)[C@@H](N)C(C)C)C(F)(F)F)n4)ccc3C)cnc2c1` [F251]: the pIC50 was 6.85.

`Cc1ccn2c(C(=O)Nc3cc(-c4noc(CC[C@](C)(OC(=O)[C@H](N)C(C)C)C(F)(F)F)n4)ccc3C)cnc2c1` [F252]: the negative-log IC50 (pIC50) was 6.87.

The pIC50 is the negative decadic logarithm of the IC50, by convention in mol/L.
